In this test the target is T1, KRAS G12C (Homo sapiens, UniProt P01116, G12C).
T1 construct: expressed in transfected cells; host or cells: Ras Initiative (RI) KRAS G12C cells
Description: phospho-ERK HTRF assay in Ras Initiative (RI) KRAS G12C cells. The format is cell-based. The settings on record: phospho-ERK1/2 HTRF, 11-point dose response from 2,500 nM, treatment for either 4 hours or 16 hours, read-out: pERK (RI). The procedure:
Inhibition of KRAS G12C-Mediates Phospho-ERK1/2 Inhibition by Compounds of Formula I
This Example illustrates that various compounds of the present disclosure inhibit KRAS G12C thereby mediating the downstream inhibition of phospho-ERK1/2.
KRAS G12C mutant cell lines, NCI H358 (ATCC, CRL-5807), and Ras Initiative (R1) KRAS G12C were cultured according to published protocols and maintained at 37° C. in 5% CO2. The phospho-ERK HTRF assay was executed following provider's protocol (CisBio #64AERPEH). NCI-H358 or RI KRAS G12C cells were plated at a density of 50,000 cells per well in a 96-well plate (Corning #3903) in respective medias (for NCI-H358, RPMI+10% FBS+1% Pen/Strep, and for RI KRAS G12C, DMEM+10% FBS+1% Pen/Strep+4 ug/ml Blasticidin) and maintained at 37° C. in 5% CO2. Cells were allowed to adhere overnight and treated the following day with a Tecan D300e Digital Dispenser (Tecan Group Ltd., Switzerland) using an 11-point dose response starting at 2,500 nM of exemplified compounds followed by sequential 1:3 dilutions for either 4 hours or 16 hours. Following compound treatment, the cells were washed once with ice-cold PBS. Cells were lysed by adding 50 μl of lysis buffer (1×) supplemented with 1× Pierce Halt Protease and Phosphatase inhibitor and incubated for 30 minutes at 4° C. with shaking. After lysis, 16 μL of cell lysate from the 96-well cell-culture plate was transferred to a 384-well plate (Perkin Elmer #6007290). The premixed antibody solution was prepared by mixing (vol/vol) advanced phospho-ERK1/2 d2 antibody and advanced phospho-ERK1/2 Eu Cryptate antibody. The premixed antibody solution ([…]) was added to the detection plate containing cell lysate. The detection plate was incubated overnight at 4° C., the HTRF signal was read the next day by using either a Spectramax M5 or Spectramax i3 microplate reader (Molecular Devices, San Jose, CA, USA), and data was processed according to manufacturer's protocol.
Compounds prepared according to the preceding procedures and characterized for inhibition of p-ERK according to the protocol provided herein are summarized in Table 3: […]

T1 sequence (P01116 1-188 isoform P01116-2 G12C): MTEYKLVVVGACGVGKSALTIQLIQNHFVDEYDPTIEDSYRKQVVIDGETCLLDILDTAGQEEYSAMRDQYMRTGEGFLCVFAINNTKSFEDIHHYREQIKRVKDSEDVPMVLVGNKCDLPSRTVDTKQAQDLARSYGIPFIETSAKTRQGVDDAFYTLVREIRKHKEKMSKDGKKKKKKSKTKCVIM

In the case of `C=CC(=O)N1[C@H](C)CN(c2nc(=O)n3c4c(c(-c5cc(Cl)c(F)cc5F)c(C(F)(F)F)cc24)SC[C@@H](c2ccncc2)C3)C[C@@H]1C` (atropisomer, axis not shown) [Example 100B, (3S)-8-((3S,5R)-4-acryloyl-3,5-dimethylpiperazin-1-yl)-11-(5-chloro-2,4-difluorophenyl)-3-(pyridin-4-yl)-10-(trifluoromethyl)-3,4-dihydro-2H,6H-[1,4]thiazepino[2,3,4-ij]quinazolin-6-one], the IC50 fell in the range of 0.5 to 2 nM. The same measure for `C=CC(=O)N1[C@H](C)CN(c2nc(=O)n3c4c(c(-c5cc(Cl)c(F)cc5F)c(C(F)(F)F)cc24)SC[C@@H](c2cccnc2)C3)C[C@@H]1C` (atropisomer, axis not shown) [Example 104A, (3S,11R)-8-((3S,5R)-4-acryloyl-3,5-dimethylpiperazin-1-yl)-11-(5-chloro-2,4-difluorophenyl)-3-(pyridin-3-yl)-10-(trifluoromethyl)-3,4-dihydro-2H,6H-[1,4]thiazepino[2,3,4-ij]quinazolin-6-one]: 0.5 to 2 nM. For the compound `C=CC(=O)N1[C@H](C)CN(c2nc(=O)n3c4c(c(-c5cc(Br)c(F)cc5F)c(C(F)(F)F)cc24)SC[C@@H](c2cccnc2)C3)C[C@@H]1C` (atropisomer, axis not shown) [Example 108A, (3S,11R)-8-((3S,5R)-4-acryloyl-3,5-dimethylpiperazin-1-yl)-11-(5-bromo-2,4-difluorophenyl)-3-(pyridin-3-yl)-10-(trifluoromethyl)-3,4-dihydro-2H,6H-[1,4]thiazepino[2,3,4-ij]quinazolin-6-one], the IC50 was 0.5 to 2 nM. To `C=CC(=O)N1[C@H](C)CN(c2nc(=O)n3c4c(c(-c5ccc(F)cc5F)c(C(F)(F)F)cc24)SC[C@H](c2ccc(F)cc2)C3)C[C@@H]1C` (atropisomer, axis not shown) [Example 118] belongs greater than 250 nM; to `C=CC(=O)N1[C@H](C)CN(c2nc(=O)n3c4c(c(-c5cc(Cl)c(F)cc5F)c(C(F)(F)F)cc24)SC[C@@H](c2ccncc2)C3)C[C@@H]1C` (single isomer, unassigned) [Example 100A], 2 to 20 nM.

Regarding `C=CC(=O)N1[C@H](C)CN(c2nc(=O)n3c4c(c(-c5cc(Br)c(F)cc5F)c(C(F)(F)F)cc24)SC[C@@H](c2ccccn2)C3)C[C@@H]1C` (single isomer, unassigned) [Example 107A], the IC50 fell in the range of 2 to 20 nM. To `C=CC(=O)N1[C@H](C)CN(c2nc(=O)n3c4c(c(-c5cc(Br)c(F)cc5F)c(C(F)(F)F)cc24)SC[C@@H](c2ccccn2)C3)C[C@@H]1C` (single isomer, unassigned) [Example 107B] belongs 0.5 to 2 nM; to `C=CC(=O)N1[C@H](C)CN(c2nc(=O)n3c4c(c(-c5cc(Cl)c(F)cc5F)c(C(F)(F)F)cc24)SC[C@@H](c2ccncc2F)C3)C[C@@H]1C` (single isomer, unassigned) [Example 112A], 2 to 20 nM. Regarding `C=CC(=O)N1[C@H](C)CN(c2nc(=O)n3c4c(c(-c5cc(Cl)c(F)cc5F)c(C(F)(F)F)cc24)SC[C@@H](c2ccncc2F)C3)C[C@@H]1C` (single isomer, unassigned) [Example 112B], the IC50 was 0.5 to 2 nM. To `C=CC(=O)N1[C@H](C)CN(c2nc(=O)n3c4c(c(-c5cc(Br)c(F)cc5F)c(C(F)(F)F)cc24)SC[C@@H](c2ccncc2)C3)C[C@@H]1C` [Example 102, (3S)-8-((3S,5R)-4-acryloyl-3,5-dimethylpiperazin-1-yl)-11-(5-bromo-2,4-difluorophenyl)-3-(pyridin-4-yl)-10-(trifluoromethyl)-3,4-dihydro-2H,6H-[1,4]thiazepino[2,3,4-ij]quinazolin-6-one] belongs 0.5 to 2 nM. To `C=CC(=O)N1[C@H](C)CN(c2nc(=O)n3c4c(c(-c5cc(Br)c(F)cc5F)c(C(F)(F)F)cc24)SC[C@H](c2ccccn2)C3)C[C@@H]1C` [Example 103] belongs greater than 250 nM; to `C=CC(=O)N1[C@H](C)CN(c2nc(=O)n3c4c(c(-c5cc(Cl)c(F)cc5F)c(C(F)(F)F)cc24)SC[C@@H](c2cccnc2)C3)C[C@@H]1C` [Example 104B, (3S,11S)-8-((3S,5R)-4-acryloyl-3,5-dimethylpiperazin-1-yl)-11-(5-chloro-2,4-difluorophenyl)-3-(pyridin-3-yl)-10-(trifluoromethyl)-3,4-dihydro-2H,6H-[1,4]thiazepino[2,3,4-ij]quinazolin-6-one], 2 to 20 nM; to `C=CC(=O)N1[C@H](C)CN(c2nc(=O)n3c4c(c(-c5ccc(F)cc5)c(C(F)(F)F)cc24)SC[C@@H](c2ccccn2)C3)C[C@@H]1C` [Example 106, (R)-8-((3S,5R)-4-acryloyl-3,5-dimethylpiperazin-1-yl)-11-(4-fluorophenyl)-3-(pyridin-2-yl)-10-(trifluoromethyl)-3,4-dihydro-2H,6H-[1,4]thiazepino[2,3,4-ij]quinazolin-6-one], 0.5 to 2 nM. The same measure for `C=CC(=O)N1[C@H](C)CN(c2nc(=O)n3c4c(c(-c5cc(Br)c(F)cc5F)c(C(F)(F)F)cc24)SC[C@@H](c2cccnc2)C3)C[C@@H]1C` [Example 108B, (3S,11S)-8-((3S,5R)-4-acryloyl-3,5-dimethylpiperazin-1-yl)-11-(5-bromo-2,4-difluorophenyl)-3-(pyridin-3-yl)-10-(trifluoromethyl)-3,4-dihydro-2H,6H-[1,4]thiazepino[2,3,4-ij]quinazolin-6-one]: 2 to 20 nM. Take `C=CC(=O)N1[C@H](C)CN(c2nc(=O)n3c4c(c(-c5cc(Cl)c(F)cc5F)c(C(F)(F)F)cc24)SC[C@@H](c2cncc(F)c2)C3)C[C@@H]1C` [Example 109, (3S)-8-((3S,5R)-4-acryloyl-3,5-dimethylpiperazin-1-yl)-11-(5-chloro-2,4-difluorophenyl)-3-(5-fluoropyridin-3-yl)-10-(trifluoromethyl)-3,4-dihydro-2H,6H-[1,4]thiazepino[2,3,4-ij]quinazolin-6-one]: the IC50 was in the range of 2 to 20 nM. The same measure for `C=CC(=O)N1[C@H](C)CN(c2nc(=O)n3c4c(c(-c5cc(Cl)c(F)cc5F)c(C(F)(F)F)cc24)SC[C@H](c2ccncc2F)C3)C[C@@H]1C` [Example 111]: 20 to 250 nM; for `C=CC(=O)N1[C@H](C)CN(c2nc(=O)n3c4c(c(-c5ccc(F)cc5)c(C(F)(F)F)cc24)SC[C@@H](c2ccncc2)C3)C[C@@H]1C` [Example 113, (S)-8-((3S,5R)-4-acryloyl-3,5-dimethylpiperazin-1-yl)-11-(4-fluorophenyl)-3-(pyridin-4-yl)-10-(trifluoromethyl)-3,4-dihydro-2H,6H-[1,4]thiazepino[2,3,4-ij]quinazolin-6-one]: 0.5 to 2 nM; for `C=CC(=O)N1[C@H](C)CN(c2nc(=O)n3c4c(c(-c5ccc(F)cc5)c(C(F)(F)F)cc24)SC[C@@H](c2ccncc2F)C3)C[C@@H]1C` [Example 114, (S)-8-((3S,5R)-4-acryloyl-3,5-dimethylpiperazin-1-yl)-11-(4-fluorophenyl)-3-(3-fluoropyridin-4-yl)-10-(trifluoromethyl)-3,4-dihydro-2H,6H-[1,4]thiazepino[2,3,4-ij]quinazolin-6-one]: 0.5 to 2 nM. The same measure for `C=CC(=O)N1[C@H](C)CN(c2nc(=O)n3c4c(c(-c5ccc(F)cc5)c(C(F)(F)F)cc24)SCC(c2ccc(F)cc2)C3)C[C@@H]1C` (stereo partly drawn) [Example 115, 8-((3S,5R)-4-acryloyl-3,5-dimethylpiperazin-1-yl)-3,11-bis(4-fluorophenyl)-10-(trifluoromethyl)-3,4-dihydro-2H,6H-[1,4]thiazepino[2,3,4-ij]quinazolin-6-one]: 20 to 250 nM; for `C=CC(=O)N1[C@H](C)CN(c2nc(=O)n3c4c(c(-c5ccc(F)cc5)c(C(F)(F)F)cc24)SCC(c2ccc(F)cc2)C3)C[C@@H]1C` (stereo partly shown) [Example 116]: 2 to 20 nM. Turning to `C=CC(=O)N1[C@H](C)CN(c2nc(=O)n3c4c(c(-c5ccc(F)cc5)c(C(F)(F)F)cc24)SC[C@H](c2cccs2)C3)C[C@@H]1C` [Example 124, (R)-8-((3S,5R)-4-acryloyl-3,5-dimethylpiperazin-1-yl)-11-(4-fluorophenyl)-3-(thiophen-2-yl)-10-(trifluoromethyl)-3,4-dihydro-2H,6H-[1,4]thiazepino[2,3,4-ij]quinazolin-6-one], the IC50 is 20 to 250 nM. The same measure for `C=CC(=O)N1[C@H](C)CN(c2nc(=O)n3c4c(c(-c5ccc(F)cc5)c(C(F)(F)F)cc24)SC[C@@H](c2cccs2)C3)C[C@@H]1C` [Example 125, (S)-8-((3S,5R)-4-acryloyl-3,5-dimethylpiperazin-1-yl)-11-(4-fluorophenyl)-3-(thiophen-2-yl)-10-(trifluoromethyl)-3,4-dihydro-2H,6H-[1,4]thiazepino[2,3,4-ij]quinazolin-6-one]: 2 to 20 nM.

The record behind these values is patent US20250313577A1, “TRICYCLIC PYRIDONES AND PYRIMIDONES” (ERASCA, INC, priority 2022, published 2025).
